# Laboratory results as given in patent US20260102499A1, “COMPOSITIONS WITH REDUCED N[…]” (INVENTIA HEALTHCARE LIMITED, priority 2022, published 2026).
# “And” between values parts separate entries of the source, which are not always exact repeats. Equal values may be shown once.
# Test: Acceptable intake / acceptable level of nitrosamine impurities (Health Canada)
# Details: based on a maximum daily dose of 2 mg for varenicline
# Source text: International regulators such as United States Food and Drug Administration (USFDA), European Medicine Agency (EMA), and Health Canada have published recommendations with respect to ‘acceptable intake’ of nitrosamine impurities. ‘Acceptable intake’ (per day) of nitrosamine impurities varies with the impurity structure, molecular weight, and its toxicity potential. Table 1 illustrates the per day ‘acceptable intake’ of some nitrosamine impurities, as published by Health Canada.
# ‘Acceptable intake’ of a nitrosamine impurity, when applied to the maximum daily dose of a drug, provides ‘acceptable levels’ of the said nitrosamine impurity in pharmaceutical compositions containing the said drug. ‘Acceptable levels’ of a nitrosamine impurity are expressed in parts per million (ppm) or parts per billion (ppb), of the drug (by weight). For example, for varenicline (which contains amine), the ‘acceptable intake’ of the N-nitroso-varenicline (NNV) (nitrosamine impurity of the NDSRI type) is 37 ng/day, and the ‘acceptable level’ of NNV is 18.5 ppm based on a maximum daily dose of 2 mg for varenicline.
row,SMILES,acceptable level of NNV [ppm]
1,"O=NN1CC2CC(C1)c1cc3nccnc3cc12 [N-nitroso-varenicline (NNV), N-nitroso-varenicline]",18.5

# Test: not given
# Details: per day, as published by Health Canada; cited from earlier work
row,SMILES,Acceptable Intake (AI) Levels
1,"O=NN1CC=CCC1 [N-nitroso-1,2,3,6-tetrahydropyridine]",37.0 ng/day
2,"CN1CCN(N=O)CC1 [1-methyl-4-nitrosopiperazine (MNP), 1-methyl-4-nitrosopiperazine]",96.0 ng/day
3,"CN(C)N=O [N-nitroso-dimethylamine (NDMA), N-nitroso-dimethylamine]",96.0 ng/day
4,"O=NN1CCn2c(nnc2C(F)(F)F)C1 [7-Nitroso-3-(trifluoromethyl)-5,6,7,8-tetrahydro[1,2,4]triazolo-[4,3-a]pyrazine]",37.0 ng/day
5,"CN(CC[C@H](Oc1cccc2ccccc12)c1cccs1)N=O [N-nitroso-duloxetine (NDLX), N-nitroso-duloxetine]",100.0 ng/day
6,CN(CCCC(=O)O)N=O [N-nitroso-4-(methylamino)butyric acid],96.0 ng/day
7,"CCN(N=O)C(C)C [N-nitroso-ethylisopropylamine (NEIPA), N-nitroso-ethylisopropylamine]",26.5 ng/day
8,O=NN1CCCCC1 [N-nitroso-piperidine],1300.0 ng/day
9,CN(CCc1ccccc1)N=O [N-methyl-N-nitroso-phenethylamine],8.0 ng/day
10,"O=NN1CCOCC1 [N-nitrosomorpholine (NMOR), N-nitrosomorpholine]",127.0 ng/day
11,"CCCN(CCC)N=O [N-nitroso-dipropylamine (NDPA), N-nitroso-dipropylamine]",26.5 ng/day
12,"CCN(CC)N=O [N-nitroso-diethylamine (NDEA), N-nitroso-diethylamine]",26.5 ng/day
13,"CCCCN(CCCC)N=O [N-nitroso-dibutylamine (NDBA), N-nitroso-dibutylamine]",26.5 ng/day
14,"CN(CCC=C1c2ccccc2CCc2ccccc21)N=O [N-nitroso-nortriptyline (NNORT), N-nitroso-nortriptyline]",8.0 ng/day
15,COC(=O)C(c1ccccc1)C1CCCCN1N=O (stereo not shown) [N-nitroso-methylphenidate],1300.0 ng/day
16,"CC(C)N(N=O)C(C)C [N-nitroso-diisopropylamine (NDIPA), N-nitroso-diisopropylamine]",26.5 ng/day
17,"O=NN1CC2CC(C1)c1cc3nccnc3cc12 [N-nitroso-varenicline (NNV), N-nitroso-varenicline]",37 ng/day and 37.0 ng/day
18,C#CCN(N=O)[C@@H]1CCc2ccccc21 [N-nitroso-rasagiline],18.0 ng/day
